According to patent US12559506B2, “Indazole based compounds and associated methods of use” (Arvinas Operations, Inc., priority 2021, dated 2026):

Biological target: T1, LRRK2 (endogenous, HiBit tagged) (Homo sapiens, UniProt Q5S007)
T1 construct: endogenous in cells; host or cells: HEK293 cells with HiBit knock-in at the endogenous LRRK2 locus, stably expressing firefly luciferase
Assay: Endogenous LRRK2 degradation assay, endogenous gene C-terminally HiBit-tagged in HEK293 cells (Nano-Glo Dual Luciferase)
Format: cell-based
Details: endogenous HiBit-tagged LRRK2 in HEK293 cells, 24 hours treatment; for DC50: read-out: Endogenous WT DC50; for Dmax: read-out: Endogenous WT Dmax
In short: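 LRRK2-HiBit quantified via Nano-Glo Dual Luciferase in HEK293 knock-in cells co-expressing firefly luciferase, after 24 h exposure to compound (1 μM final top, 1:3, 11 points). Values normalised to DMSO median per plate and curve-fitted; Alamar Blue viability run alongside.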

T1 sequence (Q5S007 whole entry): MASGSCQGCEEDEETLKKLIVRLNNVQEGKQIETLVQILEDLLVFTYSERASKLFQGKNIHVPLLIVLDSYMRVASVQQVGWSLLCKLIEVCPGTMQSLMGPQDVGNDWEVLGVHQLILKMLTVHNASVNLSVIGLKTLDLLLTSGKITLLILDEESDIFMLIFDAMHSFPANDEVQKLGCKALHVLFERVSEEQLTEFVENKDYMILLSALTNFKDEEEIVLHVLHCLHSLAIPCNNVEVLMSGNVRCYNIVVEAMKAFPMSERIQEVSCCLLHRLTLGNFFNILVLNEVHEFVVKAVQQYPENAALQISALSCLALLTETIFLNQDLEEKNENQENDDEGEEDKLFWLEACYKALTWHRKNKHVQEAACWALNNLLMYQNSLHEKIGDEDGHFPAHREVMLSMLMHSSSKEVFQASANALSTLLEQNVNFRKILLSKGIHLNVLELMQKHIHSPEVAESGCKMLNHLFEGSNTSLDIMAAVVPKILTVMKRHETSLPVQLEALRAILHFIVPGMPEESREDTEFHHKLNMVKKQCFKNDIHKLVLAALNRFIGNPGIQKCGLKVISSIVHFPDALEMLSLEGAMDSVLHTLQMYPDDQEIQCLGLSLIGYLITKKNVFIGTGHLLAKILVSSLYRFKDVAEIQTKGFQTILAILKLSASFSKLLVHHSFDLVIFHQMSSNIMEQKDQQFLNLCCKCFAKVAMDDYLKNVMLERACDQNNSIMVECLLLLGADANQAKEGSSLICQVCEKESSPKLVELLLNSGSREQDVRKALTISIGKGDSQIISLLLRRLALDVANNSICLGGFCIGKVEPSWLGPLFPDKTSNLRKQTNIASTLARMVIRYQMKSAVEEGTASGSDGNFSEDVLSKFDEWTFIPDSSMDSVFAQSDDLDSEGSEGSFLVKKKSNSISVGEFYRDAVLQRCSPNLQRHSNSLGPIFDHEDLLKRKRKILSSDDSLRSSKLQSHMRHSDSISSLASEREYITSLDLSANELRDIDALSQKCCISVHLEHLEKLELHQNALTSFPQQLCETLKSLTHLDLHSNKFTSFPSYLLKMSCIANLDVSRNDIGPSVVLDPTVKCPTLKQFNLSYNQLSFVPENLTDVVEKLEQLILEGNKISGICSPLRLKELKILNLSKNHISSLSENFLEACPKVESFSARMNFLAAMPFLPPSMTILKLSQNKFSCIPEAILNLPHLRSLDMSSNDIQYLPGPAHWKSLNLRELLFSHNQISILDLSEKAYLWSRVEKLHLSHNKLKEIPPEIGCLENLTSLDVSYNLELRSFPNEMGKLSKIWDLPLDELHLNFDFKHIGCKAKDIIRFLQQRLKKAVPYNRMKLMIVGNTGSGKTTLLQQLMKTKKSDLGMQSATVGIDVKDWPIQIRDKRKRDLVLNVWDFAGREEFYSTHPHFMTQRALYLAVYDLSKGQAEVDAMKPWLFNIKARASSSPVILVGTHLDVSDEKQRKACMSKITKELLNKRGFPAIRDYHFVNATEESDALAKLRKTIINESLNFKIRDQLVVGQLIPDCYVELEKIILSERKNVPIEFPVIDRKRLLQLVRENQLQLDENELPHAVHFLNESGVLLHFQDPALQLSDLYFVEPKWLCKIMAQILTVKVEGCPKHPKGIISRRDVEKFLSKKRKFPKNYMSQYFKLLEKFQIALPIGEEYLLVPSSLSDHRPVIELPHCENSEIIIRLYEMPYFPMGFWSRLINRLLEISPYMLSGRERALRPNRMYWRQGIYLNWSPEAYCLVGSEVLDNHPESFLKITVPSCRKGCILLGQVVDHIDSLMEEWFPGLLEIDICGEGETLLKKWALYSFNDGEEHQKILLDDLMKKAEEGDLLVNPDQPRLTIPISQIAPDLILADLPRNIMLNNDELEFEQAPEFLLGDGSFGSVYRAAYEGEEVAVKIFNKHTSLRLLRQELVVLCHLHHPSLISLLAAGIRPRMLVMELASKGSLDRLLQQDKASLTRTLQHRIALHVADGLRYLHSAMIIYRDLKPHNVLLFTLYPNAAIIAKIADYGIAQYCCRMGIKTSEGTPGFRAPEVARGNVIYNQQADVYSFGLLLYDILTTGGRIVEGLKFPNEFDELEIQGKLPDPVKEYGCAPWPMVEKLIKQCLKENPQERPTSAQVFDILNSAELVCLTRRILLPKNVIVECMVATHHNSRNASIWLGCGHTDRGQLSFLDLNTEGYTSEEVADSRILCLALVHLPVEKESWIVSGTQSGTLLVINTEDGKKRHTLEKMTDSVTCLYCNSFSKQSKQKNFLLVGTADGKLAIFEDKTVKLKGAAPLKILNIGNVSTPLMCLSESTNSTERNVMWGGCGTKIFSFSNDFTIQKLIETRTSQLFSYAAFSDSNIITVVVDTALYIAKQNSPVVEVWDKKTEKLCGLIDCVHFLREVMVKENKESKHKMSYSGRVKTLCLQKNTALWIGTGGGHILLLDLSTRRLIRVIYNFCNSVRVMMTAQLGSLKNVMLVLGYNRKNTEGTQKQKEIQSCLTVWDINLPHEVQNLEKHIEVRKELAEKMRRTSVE

| SMILES | DC50 [nM] | Dmax [%] |
| --- | --- | --- |
| COc1c(N2CCN(CC3(F)CCN(CC4CCN(c5cc(-c6n[nH]c7cnc(OC8(C)CC8)cc67)ncn5)CC4)CC3)CC2)ccc2c1CN(C1CCC(=O)NC1=O)C2=O (stereo not shown) [Compound 369, 3-{5-[4-({4-fluoro-1-[(1-{6-[5-(1-methylcyclopropoxy)-1H-pyrazolo[3,4-c]pyridin-3-yl]pyrimidin-4-yl}piperidin-4-yl)methyl]piperidin-4-yl}methyl)piperazin-1-yl]-4-methoxy-1-oxo-2,3-dihydro-1H-isoindol-2-yl}piperidine-2,6-dione] | < 10 | 50 to 70 |
| CC1(Oc2ccc3[nH]nc(-c4cc(N5CCN(C[C@H]6CC[C@H](CN7CCN(c8ccc9c(c8Cl)CN(C8CCC(=O)NC8=O)C9=O)CC7)CC6)CC5)ncn4)c3c2)CC1 (stereo partly shown) [Compound 370, 3-[4-chloro-1-oxo-5-(4-{[(1r,4r)-4-[(4-{6-[5-(1-methylcyclopropoxy)-1H-indazol-3-yl]pyrimidin-4-yl}piperazin-1-yl)methyl]cyclohexyl]methyl}piperazin-1-yl)-2,3-dihydro-1H-isoindol-2-yl]piperidine-2,6-dione] | < 10 | 50 to 70 |
| Cc1cc(-c2n[nH]c3ccc(OC4(C)CC4)nc23)cc(N2CCC(O[C@H]3CC[C@H](CN4CCN(c5ccc6c(c5F)CN(C5CCC(=O)NC5=O)C6=O)CC4)CC3)CC2)n1 (stereo partly shown) [Compound 371, 3-[4-fluoro-1-oxo-5-(4-{[(1r,4r)-4-[(1-{6-methyl-4-[5-(1-methylcyclopropoxy)-1H-pyrazolo[4,3-b]pyridin-3-yl]pyridin-2-yl}piperidin-4-yl)oxy]cyclohexyl]methyl}piperazin-1-yl)-2,3-dihydro-1H-isoindol-2-yl]piperidine-2,6-dione] | < 10 | 50 to 70 |
| CC1(Oc2ccc3[nH]nc(-c4cc(N5CCC(COC6CCC7(CC6)CN(c6ccc8c(c6F)CN(C6CCC(=O)NC6=O)C8=O)C7)CC5)ncn4)c3c2)CC1 (stereo not shown) [Compound 372, 3-(4-fluoro-5-{7-[(1-{6-[5-(1-methylcyclopropoxy)-1H-indazol-3-yl]pyrimidin-4-yl}piperidin-4-yl)methoxy]-2-azaspiro[3.5]nonan-2-yl}-1-oxo-2,3-dihydro-1H-isoindol-2-yl)piperidine-2,6-dione] | < 10 | 50 to 70 |
| CC1(Oc2ccc3[nH]nc(-c4cc(N5CCC(CN6CCC(F)(CN7CCN(c8c(F)cc9c(c8F)CN(C8CCC(=O)NC8=O)C9=O)CC7)CC6)CC5)ncn4)c3c2)CC1 (stereo not shown) [Compound 373, 3-{4,6-difluoro-5-[4-({4-fluoro-1-[(1-{6-[5-(1-methylcyclopropoxy)-1H-indazol-3-yl]pyrimidin-4-yl}piperidin-4-yl)methyl]piperidin-4-yl}methyl)piperazin-1-yl]-1-oxo-2,3-dihydro-1H-isoindol-2-yl}piperidine-2,6-dione] | < 10 | ≥ 70 |
| CC1(Oc2ccc3[nH]nc(-c4cc(N5CCC(OC6CCC7(CC6)CN(c6ccc8c(c6F)CN(C6CCC(=O)NC6=O)C8=O)C7)CC5)ncn4)c3c2)CC1 (stereo not shown) [Compound 374, 3-(4-fluoro-5-{7-[(1-{6-[5-(1-methylcyclopropoxy)-1H-indazol-3-yl]pyrimidin-4-yl}piperidin-4-yl)oxy]-2-azaspiro[3.5]nonan-2-yl}-1-oxo-2,3-dihydro-1H-isoindol-2-yl)piperidine-2,6-dione] | < 10 | 50 to 70 |
| CC1(Oc2ccc3[nH]nc(-c4ccnc(N5CCC(O[C@H]6CC[C@H](CN7CCN(c8ccc9c(c8F)CN(C8CCC(=O)NC8=O)C9=O)CC7)CC6)CC5)c4)c3n2)CC1 (stereo partly shown) [Compound 375, 3-(4-fluoro-5-(4-(((1r,4r)-4-((1-(4-(5-(1-methylcyclopropoxy)-1H-pyrazolo[4,3-b]pyridin-3-yl)pyridin-2-yl)piperidin-4-yl)oxy)cyclohexyl)methyl)piperazin-1-yl)-1-oxoisoindolin-2-yl)piperidine-2,6-dione] | < 10 | 50 to 70 |
| CC1(Oc2ccc3[nH]nc(-c4cc(N5CCC(CCN6CCC7(CN(c8ccc9c(c8F)CN(C8CCC(=O)NC8=O)C9=O)C7)C(F)(F)C6)CC5)ncn4)c3c2)CC1 (stereo not shown) [Compound 376, 3-(5-{5,5-difluoro-7-[2-(1-{6-[5-(1-methylcyclopropoxy)-1H-indazol-3-yl]pyrimidin-4-yl}piperidin-4-yl)ethyl]-2,7-diazaspiro[3.5]nonan-2-yl}-4-fluoro-1-oxo-2,3-dihydro-1H-isoindol-2-yl)piperidine-2,6-dione] | < 10 | 50 to 70 |
| CC1(Oc2ccc3[nH]nc(-c4cnnc(N5CCC(O[C@H]6CC[C@H](CN7CCN(c8ccc9c(c8F)CN(C8CCC(=O)NC8=O)C9=O)CC7)CC6)CC5)c4)c3c2)CC1 (stereo partly shown) [Compound 377, 3-[4-fluoro-1-oxo-5-(4-{[(1r,4r)-4-[(1-{5-[5-(1-methylcyclopropoxy)-1H-indazol-3-yl]pyridazin-3-yl}piperidin-4-yl)oxy]cyclohexyl]methyl}piperazin-1-yl)-2,3-dihydro-1H-isoindol-2-yl]piperidine-2,6-dione] | < 10 | 50 to 70 |
| CC1(Oc2ccc3[nH]nc(-c4cc(N5CCC(O[C@H]6CC[C@H](CN7CCN(c8ccc9c(c8F)CN(C8CCC(=O)NC8=O)C9=O)C(C)(C)C7)CC6)CC5)ncn4)c3c2)CC1 (stereo partly shown) [Compound 378, 3-[5-(2,2-dimethyl-4-{[(1r,4r)-4-[(1-{6-[5-(1-methylcyclopropoxy)-1H-indazol-3-yl]pyrimidin-4-yl}piperidin-4-yl)oxy]cyclohexyl]methyl}piperazin-1-yl)-4-fluoro-1-oxo-2,3-dihydro-1H-isoindol-2-yl]piperidine-2,6-dione] | < 10 | 50 to 70 |
| Cc1cc(-c2n[nH]c3ccc(OC4(C)CC4)cc23)cc(N2CCN(C[C@H]3CC[C@H](OC4CCN(c5ccc6c(c5F)CN(C5CCC(=O)NC5=O)C6=O)CC4)CC3)CC2)n1 (stereo partly shown) [Compound 379, 3-[4-fluoro-1-oxo-5-(4-{[(1r,4r)-4-[(4-{6-methyl-4-[5-(1-methylcyclopropoxy)-1H-indazol-3-yl]pyridin-2-yl}piperazin-1-yl)methyl]cyclohexyl]oxy}piperidin-1-yl)-2,3-dihydro-1H-isoindol-2-yl]piperidine-2,6-dione] | < 10 | 50 to 70 |
| COc1c(N2CCC(O[C@H]3CC[C@H](OC4CCN(c5cc(-c6n[nH]c7cnc(OC8(C)CC8)cc67)ncn5)CC4)CC3)CC2)ccc2c1CN(C1CCC(=O)NC1=O)C2=O (stereo partly shown) [Compound 380, 3-[4-methoxy-1-oxo-5-(4-{[(1r,4r)-4-[(1-{6-[5-(1-methylcyclopropoxy)-1H-pyrazolo[3,4-c]pyridin-3-yl]pyrimidin-4-yl}piperidin-4-yl)oxy]cyclohexyl]oxy}piperidin-1-yl)-2,3-dihydro-1H-isoindol-2-yl]piperidine-2,6-dione] | < 10 | 50 to 70 |

The remaining lines, values ahead:

| DC50 [nM] | Dmax [%] | SMILES |
| --- | --- | --- |
| < 10 | 50 to 70 | COc1c(N2CC3(CCN(CCN4CCN(c5cc(-c6n[nH]c7ccc(OC8(C)CC8)cc67)ncn5)CC4)CC3(F)F)C2)ccc2c1CN(C1CCC(=O)NC1=O)C2=O (stereo not shown) [Compound 363, 3-(5-{5,5-difluoro-7-[2-(4-{6-[5-(1-methylcyclopropoxy)-1H-indazol-3-yl]pyrimidin-4-yl}piperazin-1-yl)ethyl]-2,7-diazaspiro[3.5]nonan-2-yl}-4-methoxy-1-oxo-2,3-dihydro-1H-isoindol-2-yl)piperidine-2,6-dione] |
| < 10 | 50 to 70 | COc1c(N2CCN(C[C@H]3CC[C@H](OC4CCN(c5cc(-c6n[nH]c7ccc(OC8(C)CC8)cc67)ncn5)CC4)CC3)C(C)(C)C2)ccc2c1CN(C1CCC(=O)NC1=O)C2=O (stereo partly shown) [Compound 364, 3-[5-(3,3-dimethyl-4-{[(1r,4r)-4-[(1-{6-[5-(1-methylcyclopropoxy)-1H-indazol-3-yl]pyrimidin-4-yl}piperidin-4-yl)oxy]cyclohexyl]methyl}piperazin-1-yl)-4-methoxy-1-oxo-2,3-dihydro-1H-isoindol-2-yl]piperidine-2,6-dione] |
| < 10 | 50 to 70 | Cc1nc(-c2n[nH]c3ccc(OC4(C)CC4)cc23)cc(N2CCN(C[C@H]3CC[C@H](OC4CCN(c5ccc6c(c5F)CN(C5CCC(=O)NC5=O)C6=O)CC4)CC3)CC2)n1 (stereo partly shown) [Compound 365, 3-[4-fluoro-1-oxo-5-(4-{[(1r,4r)-4-[(4-{2-methyl-6-[5-(1-methylcyclopropoxy)-1H-indazol-3-yl]pyrimidin-4-yl}piperazin-1-yl)methyl]cyclohexyl]oxy}piperidin-1-yl)-2,3-dihydro-1H-isoindol-2-yl]piperidine-2,6-dione] |
| < 10 | 50 to 70 | COc1c(N2CCC(O[C@H]3CC[C@H](CN4CCN(c5cc(-c6n[nH]c7ccc(OC8(C)CC8)cc67)ncn5)C[C@@H]4C)CC3)CC2)ccc2c1CN(C1CCC(=O)NC1=O)C2=O (stereo partly drawn) [Compound 366, 3-[4-methoxy-1-oxo-5-(4-{[(1r,4r)-4-{[(2S)-2-methyl-4-{6-[5-(1-methylcyclopropoxy)-1H-indazol-3-yl]pyrimidin-4-yl}piperazin-1-yl]methyl}cyclohexyl]oxy}piperidin-1-yl)-2,3-dihydro-1H-isoindol-2-yl]piperidine-2,6-dione] |
| < 10 | 50 to 70 | COc1c(N2CCC(O[C@H]3CC[C@H](CN4CCN(c5cc(-c6n[nH]c7ccc(OC8(C)CC8)cc67)nc(C)n5)CC4)CC3)CC2)ccc2c1CN(C1CCC(=O)NC1=O)C2=O (stereo partly shown) [Compound 367, 3-[4-methoxy-1-oxo-5-(4-{[(1r,4r)-4-[(4-{2-methyl-6-[5-(1-methylcyclopropoxy)-1H-indazol-3-yl]pyrimidin-4-yl}piperazin-1-yl)methyl]cyclohexyl]oxy}piperidin-1-yl)-2,3-dihydro-1H-isoindol-2-yl]piperidine-2,6-dione] |
